The values that follow come from US9376418B2, “Substituted pyridine spleen tyrosine kinase (SYK) inhibitors” (Merck Sharp & Dohme Corp., priority 2012, dated 2016).

In the test the target is T1, recombinant human GST-SYK (Homo sapiens, UniProt P43405).
T1 construct: purchased Carna Biosciences 08-176
Briefly: Homogeneous Time-Resolved Fluorescence (HTRF) assay for the recombinant human Syk enzyme. The class given is biochemical. Conditions: HTRF assay, recombinant human GST-SYK; IC50 given as class symbols; read-out: rhSYK Activity. Summed up:
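GST-hSYK ([…]) was preincubated with inhibitor (0.1% DMSO) for 10 min at room temperature in Tris-HCl pH 7.5 with tween 20 and DTT. Biotinylated peptide (250 nM), Mg (5 mM) and ATP (25 μM) were added for 45 min. The reaction was quenched with EDTA, and phosphotyrosine was read by Eu-antibody/SA-APC HTRF after 30 min.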
On to `Cc1cc(Nc2nccc(C(F)(F)F)n2)cc(-c2ccc(C(=O)NC(C)(CO)CO)nc2)c1` [Example 16.13, N-[2-hydroxy-1-(hydroxymethyl)-1-methylethyl]-5-(3-methyl-5-{[4-(trifluoromethyl)pyrimidin-2-yl]amino}phenyl)pyridine-2-carboxamide], for which the IC50 was less than 100 nM.

On to `Cc1cc(Nc2nccc(C(F)(F)F)n2)cc(-c2ccc(C(=O)NCc3cnn(C)c3)nc2)c1` [Example 16.14, N-[(1-methyl-1H-pyrazol-4-yl)methyl]-5-(3-methyl-5-{[4-(trifluoromethyl)pyrimidin-2-yl]amino}phenyl)pyridine-2-carboxamide], for which the IC50 is 100 to 1000 nM.

Regarding `Cc1cc(Nc2nccc(C(F)(F)F)n2)cc(-c2ccc(C(=O)NCc3cncn3C)nc2)c1` [Example 16.15, N-[(1-methyl-1H-imidazol-5-yl)methyl]-5-(3-methyl-5-{[4-(trifluoromethyl)pyrimidin-2-yl]amino}phenyl)pyridine-2-carboxamide], the IC50 was 100 to 1000 nM.

As to `Cc1cc(Nc2nccc(C(F)(F)F)n2)cc(-c2ccc(C(=O)NCc3cn(C)cn3)nc2)c1` [Example 16.17, N-[(1-methyl-1H-imidazol-4-yl)methyl]-5-(3-methyl-5-{[4-(trifluoromethyl)pyrimidin-2-yl]amino}phenyl)pyridine-2-carboxamide], the IC50 was 100 to 1000 nM.

For the compound `Cc1cc(Nc2nccc(C(F)(F)F)n2)cc(-c2ccc(C(=O)N3CC(=O)NC(=O)C3)nc2)c1` [Example 16.18, 4-{[5-(3-methyl-5-{[4-(trifluoromethyl)pyrimidin-2-yl]amino}phenyl)pyridin-2-yl]carbonyl}piperazine-2,6-dione], the IC50 is less than 100 nM.

Regarding `Cc1cc(Nc2nccc(C(F)(F)F)n2)cc(-c2ccc(C(=O)N3CCNC(=O)CC3)nc2)c1` [Example 16.19, 1-{[5-(3-methyl-5-{[4-(trifluoromethyl)pyrimidin-2-yl]amino}phenyl)pyridin-2-yl]carbonyl}-1,4-diazepan-5-one], the IC50 was less than 100 nM.

`Cc1cc(Nc2nccc(C(F)(F)F)n2)cc(-c2ccc(C(=O)N3CCN(C)C(=O)C3)nc2)c1` [Example 16.20, 1-methyl-4-{[5-(3-methyl-5-{[4-(trifluoromethyl)pyrimidin-2-yl]amino}phenyl)pyridin-2-yl]carbonyl}piperazin-2-one]: the IC50 is less than 100 nM.

In the case of `Cc1cc(Nc2nccc(C(F)(F)F)n2)cc(-c2ccc(C(=O)NC3(CO)CCCC3)nc2)c1` [Example 16.21, N-[1-(hydroxymethyl)cyclopentyl]-5-(3-methyl-5-{[4-(trifluoromethyl)pyrimidin-2-yl]amino}phenyl)pyridin-2-carboxamide], the IC50 was 100 to 1000 nM.

As for `Cc1cc(Nc2nccc(C(F)(F)F)n2)cc(-c2ccc(C(=O)NC(C)c3ccccn3)nc2)c1` (stereo not drawn) [Example 16.22, 5-(3-methyl-5-{[4-(trifluoromethyl)pyrimidin-2-yl]amino}phenyl)-N-(1-pyridin-2-ylethyl)pyridine-2-carboxamide], the IC50 lay in the range of 100 to 1000 nM.

As for `Cc1cc(Nc2nccc(C(F)(F)F)n2)cc(-c2ccc(C(=O)N3CCN(C)C(=O)C3C)nc2)c1` (stereo not drawn) [Example 16.23, 1,3-dimethyl-4-{[5-(3-methyl-5-{[4-(trifluoromethyl)pyrimidin-2-yl]amino}phenyl)pyridin-2-yl]carbonyl}piperazin-2-one], the IC50 fell in the range of 100 to 1000 nM.

On to `CC(=O)N1CCN(C(=O)c2ccc(-c3cc(C)cc(Nc4nccc(C(F)(F)F)n4)c3)cn2)CC1` [Example 16.24, N-(3-{6-[(4-acetylpiperazin-1-yl)carbonyl]pyridin-3-yl}-5-methylphenyl)-4-(trifluoromethyl)pyrimidin-2-amine], for which the IC50 was less than 100 nM.

As for `Cc1cc(Nc2nccc(C(F)(F)F)n2)cc(-c2ccc(C(=O)N(C)CCC3OCCO3)nc2)c1` [Example 16.25, N-[2-(1,3-dioxolan-2-yl)ethyl]-N-methyl-5-(3-methyl-5-{[4-(trifluoromethyl)pyimidin-2-yl]amino}phenyl)pyridine-2-carboxamide], the IC50 was in the range of 100 to 1000 nM.

As for `Cc1cc(Nc2nccc(C(F)(F)F)n2)cc(-c2ccc(C(=O)NC3CCNC3=O)nc2)c1` (stereo not drawn) [Example 16.26, 5-(3-methyl-5-{[4-(trifluoromethyl)pyrimidin-2-yl]amino}phenyl)-N-(2-oxopyrrolidin-3-yl)pyridine-2-carboxamide], the IC50 was less than 100 nM.

On to `Cc1cc(Nc2nccc(C(F)(F)F)n2)cc(-c2ccc(C(=O)NCc3ncnn3C)nc2)c1` [Example 16.27, N-[(1-methyl-1H-1,2,4-triazol-5-yl)methyl]-5-(3-methyl-5-{[4-(trifluoromethyl)pyrimidin-2-yl]amino}phenyl)pyridine-2-carboxamide], for which the IC50 fell in the range of 100 to 1000 nM.

Regarding `C=C(F)CNC(=O)c1ccc(-c2cc(C)cc(Nc3nccc(C(F)(F)F)n3)c2)cn1` [Example 16.28, N-(2-fluoroprop-2-en-1-yl)-5-(3-methyl-5-{[4-(trifluoromethyl)pyrimidin-2-yl]amino}phenyl)pyridine-2-carboxamide], the IC50 lay in the range of 100 to 1000 nM.

Turning to `Cc1cc(Nc2nccc(C(F)(F)F)n2)cc(-c2ccc(C(=O)Nc3cncnc3)nc2)c1` [Example 16.29, 5-(3-methyl-5-{[4-(trifluoromethyl)pyrimidin-2-yl]amino}phenyl)-N-pyrimidin-5-ylpyridine-2-carboxamide], the IC50 is 100 to 1000 nM.

Turning to `Cc1cc(Nc2nccc(C(F)(F)F)n2)cc(-c2ccc(C(=O)NCC3CCC(=O)N3)nc2)c1` (stereo not drawn) [Example 16.30, 5-(3-methyl-5-{[4-(trifluoromethyl)pyrimidin-2-yl]amino}phenyl)-N-[(5-oxopyrrolidin-2-yl)methyl]pyridine-2-carboxamide], the IC50 was less than 100 nM.

Turning to `Cc1cc(Nc2nccc(C(F)(F)F)n2)cc(-c2ccc(C(=O)NCC3COCCO3)nc2)c1` (stereo not drawn) [Example 16.31], the IC50 is 100 to 1000 nM.

On to `Cc1cc(Nc2nccc(C(F)(F)F)n2)cc(-c2ccc(C(=O)N3CCn4ccnc4C3)nc2)c1` [Example 16.32, N-{3-[6-(5,6-dihydroimidazo[1,2-a]pyrazin-7(8H)-ylcarbonyl)pyridin-3-yl]-5-methylphenyl}-4-(trifluoromethyl)pyrimidin-2-amine], for which the IC50 is less than 100 nM.

Take `Cc1cc(Nc2nccc(C(F)(F)F)n2)cc(-c2ccc(C(=O)NC3CCOC3)nc2)c1` (stereo not drawn) [Example 16.33, 5-(3-methyl-5-{[4-(trifluoromethyl)pyrimidin-2-yl]amino}phenyl)-N-(tetrahydrofuran-3-yl)pyridine-2-carboxamide]: the IC50 was in the range of 100 to 1000 nM.

Regarding `COC1CN(C(=O)c2ccc(-c3cc(C)cc(Nc4nccc(C(F)(F)F)n4)c3)cn2)C1` [Example 16.34, N-(3-{6-[(3-methoxyazetidin-1-yl)carbonyl]pyridin-3-yl}-5-methylphenyl)-4-(trifluoromethyl)pyrimidin-2-amine], the IC50 is 100 to 1000 nM.

Regarding `Cc1cc(Nc2nccc(C(F)(F)F)n2)cc(-c2ccc(C(=O)NCC(O)CCCl)nc2)c1` (stereo not drawn) [Example 16.35, N-(4-chloro-2-hydroxybutyl)-5-(3-methyl-5-{[4-(trifluoromethyl)pyrimidin-2-yl]amino}phenyl)pyridine-2-carboxamide], the IC50 is 100 to 1000 nM.

With `Cc1cc(Nc2nccc(C(F)(F)F)n2)cc(-c2ccc(C(=O)N(C)C(C3CC3)C3CC3)nc2)c1` [Example 16.36, N-(dicyclopropylmethyl)-N-methyl-5-(3-methyl-5-{[4-(trifluoromethyl)pyrimidin-2-yl]amino}phenyl)pyridine-2-carboxamide], the IC50 is 100 to 1000 nM.

As to `Cc1cc(Nc2nccc(C(F)(F)F)n2)cc(-c2ccc(C(=O)N3CCOC(CCO)C3)nc2)c1` (stereo not drawn) [Example 16.37, 2-(4-{[5-(3-methyl-5-{[4-(trifluoromethyl)pyrimidin-2-yl]amino}phenyl)pyridin-2-yl]carbonyl}morpholin-2-yl)ethanol], the IC50 is less than 100 nM.

`Cc1cc(Nc2nccc(C(F)(F)F)n2)cc(-c2ccc(C(=O)N(C)CC3COCCO3)nc2)c1` (stereo not drawn) [Example 16.38, N-(1,4-dioxan-2-ylmethyl)-N-methyl-5-(3-methyl-5-{[4-(trifluoromethyl)pyrimidin-2-yl]amino}phenyl)pyridine-2-carboxamide]: the IC50 was 100 to 1000 nM.

On to `COCC1CN(C(=O)c2ccc(-c3cc(C)cc(Nc4nccc(C(F)(F)F)n4)c3)cn2)CCO1` (stereo not drawn) [Example 16.39, N-[3-(6-{[2-(methoxymethyl)morpholin-4-yl]carbonyl}pyridin-3-yl)-5-methylphenyl]-4-(trifluoromethyl)pyrimidin-2-amine], for which the IC50 was less than 100 nM.

In the case of `Cc1cc(Nc2nccc(C(F)(F)F)n2)cc(-c2ccc(C(=O)N3C[C@H]4C[C@@H]3CO4)nc2)c1` [Example 16.40, N-(3-methyl-5-{6-[(1R,4R)-2-oxa-5-azabicyclo[2.2.1]hept-5-ylcarbonyl]pyridin-3-yl}phenyl)-4-(trifluoromethyl)pyrimidin-2-amine], the IC50 is less than 100 nM.

With `Cc1cc(Nc2nccc(C(F)(F)F)n2)cc(-c2ccc(C(=O)N3C[C@H](O)C[C@H]3C)nc2)c1` [Example 16.41, (3R,5R)-5-methyl-1-{[5-(3-methyl-5-{[4-(trifluoromethyl)pyrimidin-2-yl]amino}phenyl)pyridin-2-yl]carbonyl}pyrrolidin-3-ol], the IC50 is less than 100 nM.

As for `Cc1cc(Nc2nccc(C(F)(F)F)n2)cc(-c2ccc(C(=O)N3CCC(C)(O)C3)nc2)c1` (stereo not drawn) [Example 16.42, 3-methyl-1-{[5-(3-methyl-5-{[4-(trifluoromethyl)pyrimidin-2-yl]amino}phenyl)pyridin-2-yl]carbonyl}pyrrolidin-3-ol], the IC50 was less than 100 nM.

Regarding `Cc1cc(Nc2nccc(C(F)(F)F)n2)cc(-c2ccc(C(=O)N3CC[C@H](CO)C3)nc2)c1` [Example 16.43, [(3S)-1-{[5-(3-methyl-5-{[4-(trifluoromethyl)pyrimidin-2-yl]amino}phenyl)pyridin-2-yl]carbonyl}pyrrolidin-3-yl]methanol], the IC50 is less than 100 nM.
